For experiment [1], the target named is T1, recombinant N-terminal GST-tagged human Rho kinase 1 (ROCK1, amino acids 1-535) (Homo sapiens, UniProt Q13464).
T1 construct: ROCK1, amino acids 1-535; purchased Invitrogen Inc. PV-3691
Description: In vitro Rho kinase assay (luciferase-based ATP consumption), ROCK1. It is filed as biochemical. The settings on record: recombinant GST-tagged human ROCK1, luciferase-based ATP consumption; read-out: ROCK1 IC50. A digest of the protocol:
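GST-ROCK1 (aa 1-535) at 0.82 μg/ml with 100 μg/ml S6 peptide and 3 µM ATP in Tris pH 7.5 buffer with MgCl2, CaCl2, EGTA, BSA; compound added after reaction start, 2 h at 30 °C. Remaining ATP read by luciferase luminescence; efficacy as percent of H-1152P positive control.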

Experiment [2] addresses T2, recombinant N-terminal GST-tagged human Rho kinase 2 (ROCK2, amino acids 1-552) (Homo sapiens, UniProt O75116).
T2 construct: ROCK2, amino acids 1-552; purchased Invitrogen Inc. PV3759
Description: In vitro Rho kinase assay (luciferase-based ATP consumption), ROCK2. Type of experiment: biochemical. The settings on record: recombinant GST-tagged human ROCK2, luciferase-based ATP consumption; read-out: ROCK2 IC50. Put shortly:
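GST-ROCK2 (aa 1-552, 0.82 μg/ml) with 100 μg/ml S6 peptide and 3 µM ATP in Tris pH 7.5 buffer with MgCl2/CaCl2/EGTA/BSA, compound added just after reaction start, 2 h at 30 °C. Remaining ATP read by luciferase luminescence. Efficacy expressed as percentage of H-1152P positive control.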

pIC50: −log10 of the molar value.

From patent publication US20080021026A1, “BENZOTHIOPHENE INHIBITORS OF RHO KINASE” (priority 2006, published 2008) come the findings set out here.

T2 sequence (O75116 1-552): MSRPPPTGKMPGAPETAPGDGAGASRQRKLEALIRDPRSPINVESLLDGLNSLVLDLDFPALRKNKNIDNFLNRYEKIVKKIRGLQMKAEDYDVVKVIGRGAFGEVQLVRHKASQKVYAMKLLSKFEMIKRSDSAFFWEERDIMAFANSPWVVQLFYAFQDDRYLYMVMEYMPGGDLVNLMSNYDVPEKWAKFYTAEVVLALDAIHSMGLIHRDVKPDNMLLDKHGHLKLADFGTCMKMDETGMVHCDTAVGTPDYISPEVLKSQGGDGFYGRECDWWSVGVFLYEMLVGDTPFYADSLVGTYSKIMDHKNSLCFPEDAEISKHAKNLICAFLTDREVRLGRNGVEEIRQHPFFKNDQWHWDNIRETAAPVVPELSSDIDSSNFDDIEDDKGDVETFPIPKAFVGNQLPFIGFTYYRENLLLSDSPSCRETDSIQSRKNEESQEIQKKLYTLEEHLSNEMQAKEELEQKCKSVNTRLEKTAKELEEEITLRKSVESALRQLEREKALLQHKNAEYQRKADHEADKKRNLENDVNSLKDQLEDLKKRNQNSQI
T1 sequence (Q13464 1-535): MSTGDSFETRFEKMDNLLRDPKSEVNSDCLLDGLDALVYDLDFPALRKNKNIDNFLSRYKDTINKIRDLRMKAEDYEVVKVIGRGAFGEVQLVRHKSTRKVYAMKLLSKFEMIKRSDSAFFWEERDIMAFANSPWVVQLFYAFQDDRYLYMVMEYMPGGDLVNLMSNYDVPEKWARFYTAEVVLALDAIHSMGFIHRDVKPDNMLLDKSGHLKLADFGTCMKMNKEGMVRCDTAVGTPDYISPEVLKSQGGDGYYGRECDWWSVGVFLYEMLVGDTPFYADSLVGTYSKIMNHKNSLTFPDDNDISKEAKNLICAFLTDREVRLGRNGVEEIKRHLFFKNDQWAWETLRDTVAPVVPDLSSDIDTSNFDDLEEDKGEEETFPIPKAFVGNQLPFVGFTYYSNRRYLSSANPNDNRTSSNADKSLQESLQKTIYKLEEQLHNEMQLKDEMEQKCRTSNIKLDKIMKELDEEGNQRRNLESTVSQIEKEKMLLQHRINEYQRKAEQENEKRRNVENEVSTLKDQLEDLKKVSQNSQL

As to `Cc1c(-c2ccnc(N)n2)sc2ccc(CNC(=O)C(C)(C)C)cc12` [Example 100, Cc1c(sc2ccc(CNC(═O)C(C)(C)C)cc12)-c3ccnc(N)n3], the pIC50 in experiment [1] and in experiment [2] was greater than 5.30 in each case.

`Cc1c(-c2ccnc(N)n2)sc2ccc(CNC(=O)CC(C)C)cc12` [Example 101, CC(C)CC(═O)NCc1ccc2sc(c(C)c2c1)-c3ccnc(N)n3]: the pIC50 in experiment [1] and in experiment [2] was greater than 5.30 each time.

With `Cc1c(-c2ccnc(N)n2)sc2ccc(CNC(=O)c3cnc[nH]3)cc12` [Example 102, Cc1c(sc2ccc(CNC(═O)c3cnc[nH]3)cc12)-c4ccnc(N)n4], the pIC50 in experiment [1] and in experiment [2] was greater than 5.30 each time.

In the case of `Cc1c(-c2ccnc(N)n2)sc2ccc(CNC(=O)c3ncc[nH]3)cc12` [Example 103, Cc1c(sc2ccc(CNC(═O)c3ncc[nH]3)cc12)-c4ccnc(N)n4], the pIC50 in experiment [1] and in experiment [2] was greater than 5.30 in each case.

Consider `Cc1c(-c2ccnc(N)n2)sc2ccc(CNC(=O)C3=CCCC3)cc12` [Example 104, Cc1c(sc2ccc(CNC(═O)C3═CCCC3)cc12)-c4ccnc(N)n4], for which the pIC50 in experiment [1] and in experiment [2] was greater than 5.30 each time.

As for `Cc1c(-c2ccnc(N)n2)sc2ccc(CNC(=O)C(F)(F)F)cc12` [Example 105, Cc1c(sc2ccc(CNC(═O)C(F)(F)F)cc12)-c3ccnc(N)n3], the pIC50 (in general, the IC50 on a negative log10 scale, so that one unit is a factor of ten) in experiment [1] is less than 5.30; in experiment [2], greater than 5.30.

Consider `Cc1c(-c2ccnc(N)n2)sc2ccc(CNC(=O)C3CCCO3)cc12` (stereo not drawn) [Example 106, Cc1c(sc2ccc(CNC(═O)C3CCCO3)cc12)-c4ccnc(N)n4], for which the figures for the pIC50 in experiment [1] and in experiment [2] were less than 5.30 and greater than 5.30, respectively.

On to `CC(=O)NCC(=O)NCc1ccc2sc(-c3ccnc(N)n3)c(C)c2c1` [Example 107, CC(═O)NCC(═O)NCc1ccc2sc(c(C)c2c1)-c3ccnc(N)n3], for which the pIC50 in experiment [1] was less than 5.30; in experiment [2] it was greater than 5.30.

`Cc1c(-c2ccnc(N)n2)sc2ccc(CNC(=O)c3ccccc3)cc12` [Example 108, Cc1c(sc2ccc(CNC(═O)c3ccccc3)cc12)-c4ccnc(N)n4]: the pIC50 in experiment [1] is greater than 5.30; in experiment [2], less than 5.30.

On to `Cc1c(-c2ccnc(N)n2)sc2ccc(CNC(=O)c3cccnc3)cc12` [Example 109, Cc1c(sc2ccc(CNC(═O)c3cccnc3)cc12)-c4ccnc(N)n4], for which the pIC50 was less than 5.30 in experiment [1] and greater than 5.30 in experiment [2].

In the case of `Cc1c(-c2ccnc(N)n2)sc2ccc(CNC(=O)c3ccncc3)cc12` [Example 110, Cc1c(sc2ccc(CNC(═O)c3ccncc3)cc12)-c4ccnc(N)n4], the pIC50 in experiment [1] is less than 5.30; in experiment [2] it was greater than 5.30.

For `Cc1c(-c2ccnc(N)n2)sc2ccc(CNC(=O)c3ccccn3)cc12` [Example 111, Cc1c(sc2ccc(CNC(═O)c3ccccn3)cc12)-c4ccnc(N)n4], the results for the pIC50 in experiment [1] and in experiment [2] were less than 5.30 and greater than 5.30, respectively.

For `Cc1c(-c2ccnc(N)n2)sc2ccc(CNC(=O)C(O)CCl)cc12` (stereo not drawn) [Example 112, Cc1c(sc2ccc(CNC(═O)C(O)CCl)cc12)-c3ccnc(N)n3], the values for the pIC50 in experiment [1] and in experiment [2] were less than 5.30 and greater than 5.30, respectively.

As to `Cc1cc(C(=O)NCc2ccc3sc(-c4ccnc(N)n4)c(C)c3c2)n[nH]1` [Example 113, Cc1cc(n[nH]1)C(═O)NCc2ccc3sc(c(C)c3c2)-c4ccnc(N)n4], the pIC50 in experiment [1] was less than 5.30; in experiment [2], greater than 5.30.

As for `Cc1c(-c2ccnc(N)n2)sc2ccc(CNC(=O)c3cn(C)cn3)cc12` [Example 114, Cc1c(sc2ccc(CNC(═O)c3cn(C)cn3)cc12)-c4ccnc(N)n4], the pIC50 in experiment [1] was less than 5.30; in experiment [2], greater than 5.30.

Consider `Cc1c(-c2ccnc(N)n2)sc2ccc(CNC(=O)C3CCCCC3)cc12` [Example 115, Cc1c(sc2ccc(CNC(═O)C3CCCCC3)cc12)-c4ccnc(N)n4], for which the values for the pIC50 in experiment [1] and in experiment [2] were less than 5.30 and greater than 5.30, respectively.

Take `Cc1c(-c2ccnc(N)n2)sc2ccc(CNC(=O)c3cscn3)cc12` [Example 116, Cc1c(sc2ccc(CNC(═O)c3cscn3)cc12)-c4ccnc(N)n4]: the values for the pIC50 in experiment [1] and in experiment [2] were less than 5.30 and greater than 5.30, respectively.

Regarding `CCOC(=O)CC(=O)NCc1ccc2sc(-c3ccnc(N)n3)c(C)c2c1` [Example 117, CCOC(═O)CC(═O)NCc1ccc2sc(c(C)c2c1)-c3ccnc(N)n3], the pIC50 in experiment [1] was less than 5.30; in experiment [2], greater than 5.30.

As for `Cc1cccc(C(=O)NCc2ccc3sc(-c4ccnc(N)n4)c(C)c3c2)c1` [Example 118, Cc1cccc(c1)C(═O)NCc2ccc3sc(c(C)c3c2)-c4ccnc(N)n4], the pIC50 in experiment [1] and in experiment [2] was less than 5.30 in each case.

On to `Cc1ccccc1C(=O)NCc1ccc2sc(-c3ccnc(N)n3)c(C)c2c1` [Example 119, Cc1ccccc1C(═O)NCc2ccc3sc(c(C)c3c2)-c4ccnc(N)n4], for which the pIC50 in experiment [1] was less than 5.30; in experiment [2], greater than 5.30.

As for `Cc1ccc(C(=O)NCc2ccc3sc(-c4ccnc(N)n4)c(C)c3c2)cc1` [Example 120, Cc1ccc(cc1)C(═O)NCc2ccc3sc(c(C)c3c2)-c4ccnc(N)n4], the pIC50 in experiment [1] was less than 5.30; in experiment [2], greater than 5.30.

Consider `Cc1c(-c2ccnc(N)n2)sc2ccc(CNC(=O)c3cccc(O)c3)cc12` [Example 121, Cc1c(sc2ccc(CNC(═O)c3cccc(O)c3)cc12)-c4ccnc(N)n4], for which the pIC50 in experiment [1] and in experiment [2] was greater than 5.30 throughout.

On to `Cc1c(-c2ccnc(N)n2)sc2ccc(CNC(=O)c3ccccc3O)cc12` [Example 122, Cc1c(sc2ccc(CNC(═O)c3ccccc3O)cc12)-c4ccnc(N)n4], for which the pIC50 in experiment [1] is less than 5.30; in experiment [2], greater than 5.30.

With `Cc1c(-c2ccnc(N)n2)sc2ccc(CNC(=O)c3ccc(F)cc3)cc12` [Example 123, Cc1c(sc2ccc(CNC(═O)c3ccc(F)cc3)cc12)-c4ccnc(N)n4], the values for the pIC50 in experiment [1] and in experiment [2] were less than 5.30 and greater than 5.30, respectively.

Turning to `Cc1c(-c2ccnc(N)n2)sc2ccc(CNC(=O)c3cccc(F)c3)cc12` [Example 124, Cc1c(sc2ccc(CNC(═O)c3cccc(F)c3)cc12)-c4ccnc(N)n4], the pIC50 in experiment [1] was less than 5.30; in experiment [2], greater than 5.30.

For the molecule `CCCCCCCC(=O)NCc1ccc2sc(-c3ccnc(N)n3)c(C)c2c1` [Example 125], the figures for the pIC50 in experiment [1] and in experiment [2] were less than 5.30 and greater than 5.30, respectively.

For `Cc1c(-c2ccnc(N)n2)sc2ccc(CNC(=O)c3ccc(C#N)cc3)cc12` [Example 126, Cc1c(sc2ccc(CNC(═O)c3ccc(cc3)C#N)cc12)-c4ccnc(N)n4], the pIC50 in experiment [1] and in experiment [2] was greater than 5.30 in each case.

Consider `Cc1c(-c2ccnc(N)n2)sc2ccc(CNC(=O)c3cccc(C#N)c3)cc12` [Example 127, Cc1c(sc2ccc(CNC(═O)c3cccc(c3)C#N)cc12)-c4ccnc(N)n4], for which the pIC50 in experiment [1] and in experiment [2] was greater than 5.30 each time.

As to `Cc1c(-c2ccnc(N)n2)sc2ccc(CNC(=O)C=Cc3ccccc3)cc12` [Example 128, Cc1c(sc2ccc(CNC(═O)C═Cc3ccccc3)cc12)-c4ccnc(N)n4], the pIC50 in experiment [1] and in experiment [2] was greater than 5.30 in each case.

In the case of `Cc1c(-c2ccnc(N)n2)sc2ccc(CNC(=O)c3ccccc3C=O)cc12` [Example 129, Cc1c(sc2ccc(CNC(═O)c3ccccc3C═O)cc12)-c4ccnc(N)n4], the pIC50 in experiment [1] and in experiment [2] was greater than 5.30 in each case.

Regarding `Cc1c(-c2ccnc(N)n2)sc2ccc(CNC(=O)c3ccc(C=O)cc3)cc12` [Example 130, Cc1c(sc2ccc(CNC(═O)c3ccc(C═O)cc3)cc12)-c4ccnc(N)n4], the pIC50 in experiment [1] and in experiment [2] was greater than 5.30 throughout.

For the molecule `Cc1ccc(C(=O)NCc2ccc3sc(-c4ccnc(N)n4)c(C)c3c2)c(C)c1` [Example 131, Cc1ccc(c(C)c1)C(═O)NCc2ccc3sc(c(C)c3c2)-c4ccnc(N)n4], the pIC50 in experiment [1] and in experiment [2] was greater than 5.30 in each case.

Turning to `Cc1ccccc1CC(=O)NCc1ccc2sc(-c3ccnc(N)n3)c(C)c2c1` [Example 132, Cc1ccccc1CC(═O)NCc2ccc3sc(c(C)c3c2)-c4ccnc(N)n4], the pIC50 in experiment [1] and in experiment [2] was greater than 5.30 in each case.

Turning to `Cc1cccc(C(=O)NCc2ccc3sc(-c4ccnc(N)n4)c(C)c3c2)c1C` [Example 133, Cc1cccc(c1C)C(═O)NCc2ccc3sc(c(C)c3c2)-c4ccnc(N)n4], the pIC50 in experiment [1] and in experiment [2] was greater than 5.30 each time.

Take `Cc1ccc(C)c(C(=O)NCc2ccc3sc(-c4ccnc(N)n4)c(C)c3c2)c1` [Example 134, Cc1ccc(C)c(c1)C(═O)NCc2ccc3sc(c(C)c3c2)-c4ccnc(N)n4]: the pIC50 in experiment [1] and in experiment [2] was greater than 5.30 in each case.

Consider `Cc1cc(C)cc(C(=O)NCc2ccc3sc(-c4ccnc(N)n4)c(C)c3c2)c1` [Example 135, Cc1cc(C)cc(c1)C(═O)NCc2ccc3sc(c(C)c3c2)-c4ccnc(N)n4], for which the pIC50 in experiment [1] and in experiment [2] was less than 5.30 in each case.

In the case of `Cc1ccc(C(=O)NCc2ccc3sc(-c4ccnc(N)n4)c(C)c3c2)cc1C` [Example 136, Cc1ccc(cc1C)C(═O)NCc2ccc3sc(c(C)c3c2)-c4ccnc(N)n4], the pIC50 in experiment [1] and in experiment [2] was less than 5.30 throughout.

As to `CCc1ccc(C(=O)NCc2ccc3sc(-c4ccnc(N)n4)c(C)c3c2)cc1` [Example 137, CCc1ccc(cc1)C(═O)NCc2ccc3sc(c(C)c3c2)-c4ccnc(N)n4], the pIC50 in experiment [1] and in experiment [2] was less than 5.30 each time.

Take `COc1ccc(C(=O)NCc2ccc3sc(-c4ccnc(N)n4)c(C)c3c2)cc1` [Example 138, COc1ccc(cc1)C(═O)NCc2ccc3sc(c(C)c3c2)-c4ccnc(N)n4]: the results for the pIC50 in experiment [1] and in experiment [2] were less than 5.30 and greater than 5.30, respectively.
